Experimental data published in patent publication US20250340557A1, “PYRIMIDINE DERIVATIVE” (ASKA PHARMACEUTICAL CO., LTD., priority 2022, published 2025).
pIC50: −log10 of the molar value.

Biological target: T1, human mPGES-1 (Homo sapiens, UniProt O14684)
T1 construct: made in house; host or cells: COS-1 cells (transient transfection; microsomal fraction used as enzyme)
T1 sequence (O14684 1-152): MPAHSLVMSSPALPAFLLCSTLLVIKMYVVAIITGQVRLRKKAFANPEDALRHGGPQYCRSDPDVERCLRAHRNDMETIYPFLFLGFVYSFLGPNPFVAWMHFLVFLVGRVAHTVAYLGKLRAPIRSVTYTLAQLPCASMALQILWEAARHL
Assay: Test for mPGES-1 inhibitory activity (microsomal enzyme, PGE2 EIA)
Format: biochemical
Conditions: microsomes from COS-1 cells transfected with human mPGES-1 cDNA; substrate PGH2 1 μM; 4° C., 4 minutes; PGE2 measured by EIA; read-out: h mPGES1 IC50
In short: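 IC50 values were derived from EIA-quantified PGE2 after a 4 min, 4 °C reaction with PGH2 at 1 μM final, stopped with ferric chloride/citric acid. Beforehand, compound (2% DMSO final) sat 15 min at 4 °C with human mPGES-1 microsomes from transiently transfected COS-1 cells. Buffer was sodium phosphate pH 7.2 containing 2.5 mM reduced glutathione and 1 mM EDTA.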

Row | Compound | pIC50
1 | O=C(NCc1ccc(C(F)(F)F)c(-c2nc3c(c(=O)[nH]2)CCC3)c1F)C1CCN(c2ccc(C(F)(F)F)cn2)CC1 [Example 41, N-[2-fluoro-3-(4-oxo-4,5,6,7-tetrahydro-3H-cyclopenta[d]pyrimidin-2-yl)-4-(trifluoromethyl)benzyl]-1-[5-(trifluoromethyl)pyridin-2-yl]piperidine-4-carboxamide] | 7.59
2 | Cc1cc(=O)[nH]c(-c2c(C(F)(F)F)ccc(CNC(=O)C3CCN(c4ncc(Cl)cc4Cl)CC3)c2F)n1 [Example 46, 1-(3,5-dichloropyridin-2-yl)-N-[2-fluoro-3-(4-methyl-6-oxo-1,6-dihydropyrimidin-2-yl)-4-(trifluoromethyl)benzyl]piperidine-4-carboxamide] | 7.31
3 | O=C(NCc1ccc(C(F)(F)F)c(-c2nc(C(F)(F)F)cc(=O)[nH]2)c1F)C1CCN(c2ccc(Cl)cc2F)CC1 [Example 70, 1-(4-chloro-2-fluorophenyl)-N-{2-fluoro-3-[6-oxo-4-(trifluoromethyl)-1,6-dihydropyrimidin-2-yl]-4-(trifluoromethyl)benzyl}piperidine-4-carboxamide] | 8.00
4 | COc1cc(N2CCC(C(=O)NCc3ccc(C(F)(F)F)c(-c4nc(C(F)(F)F)cc(=O)[nH]4)c3F)CC2)ccc1Cl [Example 83, 1-(4-chloro-3-methoxyphenyl)-N-{2-fluoro-3-[6-oxo-4-(trifluoromethyl)-1,6-dihydropyrimidin-2-yl]-4-(trifluoromethyl)benzyl}piperidine-4-carboxamide] | 8.15
5 | O=c1cc(C(F)(F)F)nc(-c2c(C(F)(F)F)ccc(CNC(=O)[C@H]3C[C@@H](OCc4ccccc4)C3)c2F)[nH]1 [Example 135, cis-3-(benzyloxy)-N-{2-fluoro-3-[6-oxo-4-(trifluoromethyl)-1,6-dihydropyrimidin-2-yl]-4-(trifluoromethyl)benzyl}cyclobutane-1-carboxamide] | 8.19
6 | O=C(NCc1ccc(C(F)(F)F)c(-c2nc(C(F)(F)F)cc(=O)[nH]2)c1F)C1CCN(c2cc(Cl)cc(Cl)c2)CC1 [Example 82, 1-(3,5-dichlorophenyl)-N-{2-fluoro-3-[6-oxo-4-(trifluoromethyl)-1,6-dihydropyrimidin-2-yl]-4-(trifluoromethyl)benzyl}piperidine-4-carboxamide] | 8.09
7 | O=C(NCc1ccc(C(F)(F)F)c(-c2nc(C(F)(F)F)cc(=O)[nH]2)c1F)C1CCN(c2ncc(Cl)cc2Cl)CC1 [Example 30, 1-(3,5-dichloropyridin-2-yl)-N-{2-fluoro-3-[6-oxo-4-(trifluoromethyl)-1,6-dihydropyrimidin-2-yl]-4-(trifluoromethyl)benzyl}piperidine-4-carboxamide] | > 9.00
8 | O=C(NCc1ccc(C(F)(F)F)c(-c2nc(C(F)(F)F)cc(=O)[nH]2)c1F)C1CCN(c2ccc(C(F)(F)F)cn2)CC1 [Example 20, N-{2-fluoro-3-[6-oxo-4-(trifluoromethyl)-1,6-dihydropyrimidin-2-yl]-4-(trifluoromethyl)benzyl}-1-[5-(trifluoromethyl)pyridin-2-yl]piperidine-4-carboxamide] | > 9.00
9 | O=C(NCc1ccc(C(F)(F)F)c(-c2nc(C(F)(F)F)cc(=O)[nH]2)c1F)C1CCN(c2ccc(OC(F)(F)F)cn2)CC1 [Example 40, N-{2-fluoro-3-[6-oxo-4-(trifluoromethyl)-1,6-dihydropyrimidin-2-yl]-4-(trifluoromethyl)benzyl}-1-[5-(trifluoromethoxy)pyridin-2-yl]piperidine-4-carboxamide] | 7.82
10 | O=C(NCc1ccc(C(F)(F)F)c(-c2nc(C(F)F)cc(=O)[nH]2)c1F)C1CCN(c2ccc(OC(F)(F)F)cc2)CC1 [Example 85, N-{3-[4-(difluoromethyl)-6-oxo-1,6-dihydropyrimidin-2-yl]-2-fluoro-4-(trifluoromethyl)benzyl}-1-[4-(trifluoromethoxy)phenyl]piperidine-4-carboxamide] | 9.21
11 | Cc1nc(-c2c(C(F)(F)F)ccc(CNC(=O)C3CCN(c4ncc(C(F)(F)F)cc4F)CC3)c2F)[nH]c(=O)c1F [Example 48, N-[2-fluoro-3-(5-fluoro-4-methyl-6-oxo-1,6-dihydropyrimidin-2-yl)-4-(trifluoromethyl)benzyl]-1-[3-fluoro-5-(trifluoromethyl)pyridin-2-yl]piperidine-4-carboxamide] | > 9.00

Same assay, conditions: microsomes of COS-1 cells transfected with human mPGES-1 cDNA; PGH2 1 μM; 4° C., 4 minutes; PGE2 by EIA; read-out: h mPGES1 IC50

Row | Compound | pIC50
12 | O=c1cc(C(F)(F)F)nc(-c2c(C(F)(F)F)ccc(CNC(=O)[C@H]3C[C@H](Oc4cccc(Cl)c4)C3)c2F)[nH]1 [Example 253, trans-3-(3-chlorophenoxy)-N-{2-fluoro-3-[6-oxo-4-(trifluoromethyl)-1,6-dihydropyrimidin-2-yl]-4-(trifluoromethyl)benzyl}cyclobutane-1-carboxamide] | 9.00
13 | O=c1cc(C(F)F)nc(-c2c(C(F)(F)F)ccc(CNC(=O)[C@H]3C[C@H](OCc4cccc(Cl)c4F)C3)c2F)[nH]1 [Example 174, trans-3-[(3-chloro-2-fluorobenzyl)oxy]-N-{3-[4-(difluoromethyl)-6-oxo-1,6-dihydropyrimidin-2-yl]-2-fluoro-4-(trifluoromethyl)benzyl}cyclobutane-1-carboxamide] | > 9.00
14 | O=c1cc(C(F)F)nc(-c2c(C(F)(F)F)ccc(CNC(=O)[C@H]3C[C@H](OCc4ccc(Cl)cc4)C3)c2F)[nH]1 [Example 163, trans-3-[(4-chlorobenzyl)oxy]-N-{3-[4-(difluoromethyl)-6-oxo-1,6-dihydropyrimidin-2-yl]-2-fluoro-4-(trifluoromethyl)benzyl}cyclobutane-1-carboxamide] | > 9.00
15 | O=c1cc(-c2ccc(C(F)(F)F)cn2)nc(-c2c(C(F)(F)F)ccc(CNS(=O)(=O)c3ccccc3C(F)(F)F)c2F)[nH]1 [Example 269, N-(2-fluoro-3-{6-oxo-4-[5-(trifluoromethyl)pyridin-2-yl]-1,6-dihydropyrimidin-2-yl}-4-(trifluoromethyl)benzyl)-2-(trifluoromethyl)benzenesulfonamide] | 8.12
16 | O=c1cc(-c2ccc(C(F)(F)F)cn2)nc(-c2c(C(F)(F)F)ccc(CNS(=O)(=O)c3ccc(-c4ccccc4)cc3)c2F)[nH]1 [Example 271, N-(2-fluoro-3-{6-oxo-4-[5-(trifluoromethyl)pyridin-2-yl]-1,6-dihydropyrimidin-2-yl}-4-(trifluoromethyl)benzyl)-[1,1′-biphenyl]-4-sulfonamide] | 7.12
17 | CCc1cc(=O)[nH]c(-c2c(C(F)(F)F)ccc(CNC(=O)[C@H]3C[C@H](OCc4ccc(Cl)cc4F)C3)c2F)n1 [Example 202, trans-3-[(4-chloro-2-fluorobenzyl)oxy]-N-[3-(4-ethyl-6-oxo-1,6-dihydropyrimidin-2-yl)-2-fluoro-4-(trifluoromethyl)benzyl]cyclobutane-1-carboxamide] | > 9.00
18 | O=c1cc(C(F)F)nc(-c2c(C(F)(F)F)ccc(CNC(=O)[C@H]3C[C@H](OCc4ccc(F)c(F)c4)C3)c2F)[nH]1 [Example 169, trans-3-[(3,4-difluorobenzyl)oxy]-N-{3-[4-(difluoromethyl)-6-oxo-1,6-dihydropyrimidin-2-yl]-2-fluoro-4-(trifluoromethyl)benzyl}cyclobutane-1-carboxamide] | > 9.00
19 | Cc1nc(-c2c(C(F)(F)F)ccc(CNC(=O)[C@H]3C[C@H](OCc4ccccc4C(F)(F)F)C3)c2F)[nH]c(=O)c1F [Example 215, trans-N-[2-fluoro-3-(5-fluoro-4-methyl-6-oxo-1,6-dihydropyrimidin-2-yl)-4-(trifluoromethyl)benzyl]-3-{[2-(trifluoromethyl)benzyl]oxy}cyclobutane-1-carboxamide] | 8.16
20 | Cc1nc(-c2c(C(F)(F)F)ccc(CNC(=O)[C@H]3C[C@H](OCc4cc(Cl)ccc4F)C3)c2F)[nH]c(=O)c1F [Example 226, trans-3-[(5-chloro-2-fluorobenzyl)oxy]-N-[2-fluoro-3-(5-fluoro-4-methyl-6-oxo-1,6-dihydropyrimidin-2-yl)-4-(trifluoromethyl)benzyl]cyclobutane-1-carboxamide] | > 9.00
21 | CCc1nc(-c2c(C(F)(F)F)ccc(CNC(=O)[C@H]3C[C@H](OCc4ccccc4Cl)C3)c2F)[nH]c(=O)c1F [Example 229, trans-3-[(2-chlorobenzyl)oxy]-N-[3-(4-ethyl-5-fluoro-6-oxo-1,6-dihydropyrimidin-2-yl)-2-fluoro-4-(trifluoromethyl)benzyl]cyclobutane-1-carboxamide] | > 9.00
22 | O=c1cc(C(F)(F)F)nc(-c2c(C(F)(F)F)ccc(CNC(=O)[C@H]3C[C@@H](OCc4ccc(C(F)(F)F)cc4)C3)c2F)[nH]1 [Example 147, cis-N-{2-fluoro-3-[6-oxo-4-(trifluoromethyl)-1,6-dihydropyrimidin-2-yl]-4-(trifluoromethyl)benzyl}-3-{[4-(trifluoromethyl)benzyl]oxy}cyclobutane-1-carboxamide] | > 9.00
23 | Cc1nc(-c2c(C(F)(F)F)ccc(CNC(=O)[C@H]3C[C@H](OCc4ccc(C(F)(F)F)cc4)C3)c2F)[nH]c(=O)c1F [Example 217, trans-N-[2-fluoro-3-(5-fluoro-4-methyl-6-oxo-1,6-dihydropyrimidin-2-yl)-4-(trifluoromethyl)benzyl]-3-{[4-(trifluoromethyl)benzyl]oxy}cyclobutane-1-carboxamide] | 7.80
24 | Cc1cc(=O)[nH]c(-c2c(C(F)(F)F)ccc(CNC(=O)[C@H]3C[C@H](OCc4ccc(Cl)cc4F)C3)c2F)n1 [Example 185, trans-3-[(4-chloro-2-fluorobenzyl)oxy]-N-[2-fluoro-3-(4-methyl-6-oxo-1,6-dihydropyrimidin-2-yl)-4-(trifluoromethyl)benzyl]cyclobutane-1-carboxamide] | 8.92
